Measured values as given in US20100130432A1, “Non-Natural Amino Acids and Neurotensin Analogues Thereof” (priority 2005, published 2010).
Read-outs that look alike come from different tables or passages of the source. Non-standard residues stand in square brackets, D forms with d. Residues, ends and D or L forms follow the SMILES beside them. *: point of attachment. Tle = CC(C)(C)[C@H](N)C(=O)O; X1 = C[C@@H](CCCCCN)C(=O)*

What was measured:
[1] = Brain distribution of ABS201 (LC/MS/MS)
Source text: (§1) At selected time points, blood was removed or brain harvested and the concentration of the peptide analog determined using LC/MS/MS.
(§2) These samples were then used for the determination of plasma and brain drug levels by LC/MS/MS for estimating BBB penetration and pharmacokinetic parameters.

[2] = system: rats
Source text: Chronic Testing Protocols. […] Induced hypothermia was monitored and tested for significance as described above. […] The test protocol for day five was as described above.

[3] = system: L5178Y TK+/−mouse lymphoma cells; details: initial data, with and without S9
[4] = intra-stomach
Protocol: These samples were used for the determination of plasma drug by LC/MS/MS for estimating pharmacokinetic parameters and segmental absorption. The bioavailability of intra-stomach, intra-duodenum, intra-jejunum, intra-colon administration relative to intravenous administration and gavage was calculated.

[5] = biological target: hERG (human ether-a-go-go related gene) channels (Homo sapiens, UniProt Q12809); details: initial results
Chain of hERG (human ether-a-go-go related gene) channels (Q12809 whole entry): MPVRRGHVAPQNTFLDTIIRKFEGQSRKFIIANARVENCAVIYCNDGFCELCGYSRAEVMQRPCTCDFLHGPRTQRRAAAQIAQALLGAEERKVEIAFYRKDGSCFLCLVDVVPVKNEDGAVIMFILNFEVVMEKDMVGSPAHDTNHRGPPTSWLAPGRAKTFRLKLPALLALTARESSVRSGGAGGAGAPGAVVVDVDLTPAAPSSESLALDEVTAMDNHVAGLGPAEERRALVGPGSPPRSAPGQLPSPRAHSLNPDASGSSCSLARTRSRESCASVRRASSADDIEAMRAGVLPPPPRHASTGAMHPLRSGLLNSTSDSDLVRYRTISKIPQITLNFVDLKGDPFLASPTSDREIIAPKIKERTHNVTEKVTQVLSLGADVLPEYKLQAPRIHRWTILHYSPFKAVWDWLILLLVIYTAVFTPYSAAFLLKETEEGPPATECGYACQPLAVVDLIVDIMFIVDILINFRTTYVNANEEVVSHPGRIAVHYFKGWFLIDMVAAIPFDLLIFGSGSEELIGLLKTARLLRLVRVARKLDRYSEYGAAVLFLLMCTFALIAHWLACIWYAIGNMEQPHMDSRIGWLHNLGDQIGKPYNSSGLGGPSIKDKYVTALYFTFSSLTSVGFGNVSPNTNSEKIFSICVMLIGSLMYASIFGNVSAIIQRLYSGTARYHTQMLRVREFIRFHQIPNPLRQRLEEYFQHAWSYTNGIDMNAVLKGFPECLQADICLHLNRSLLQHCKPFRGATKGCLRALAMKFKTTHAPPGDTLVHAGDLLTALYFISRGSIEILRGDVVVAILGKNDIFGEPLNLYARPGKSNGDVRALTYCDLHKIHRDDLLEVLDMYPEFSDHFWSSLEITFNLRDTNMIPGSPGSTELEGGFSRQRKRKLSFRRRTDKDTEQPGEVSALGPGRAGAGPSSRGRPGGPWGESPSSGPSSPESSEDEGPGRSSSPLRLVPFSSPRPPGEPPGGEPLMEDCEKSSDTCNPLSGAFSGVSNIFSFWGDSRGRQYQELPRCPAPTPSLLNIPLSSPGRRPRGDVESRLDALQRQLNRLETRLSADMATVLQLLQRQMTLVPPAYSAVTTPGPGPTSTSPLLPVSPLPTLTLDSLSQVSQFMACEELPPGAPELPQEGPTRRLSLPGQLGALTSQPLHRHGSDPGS
Protocol: hERG Assay. The objective of the hERG study is to assess the effects of the test article on the rapidly activating inward rectifying potassium current (IKr) conducted by hERG (human ether-a-go-go related gene) channels stably expressed in a HEK293 cell line. The method used is as follows. HEK293 cells, stably transfected with hERG cDNA, were used in the study. All experiments were performed at near-physiological temperature (35±2° C.). A positive control (60 nM terfenadine) was applied to two cells (n 2). Cells were be transferred to the recording chamber and superfused with HB-PS solution. The recording chamber and bathing solution were maintained at a temperature of 35±2° C. using a combination of in-line solution pre-heater, chamber floor heater, and feedback temperature controller. Bath temperature were measured using a thermistor probe.
Patch pipettes were made from glass capillary tubing using a P-97 micropipette puller (Sutter Instruments, CA). A commercial patch clamp amplifier was used for whole cell recordings. Before digitization, current records were low-pass filtered at one-fifth of the sampling frequency.
Cells stably expressing hERG were held at −80 mV.

[6] = Plasma stability, quantitative MALDI-MS assay; type: in vitro ADME
[7] = system: rats; assay: Hotplate assay; type: in vivo, rat
Source text: Animals. Experimentally naïve male Sprague-Dawley rats from Charles River Laboratories, Raleigh, N.C. (230-260 g) or Harlan, Prattville Ala. (240-280 g), were maintained 4 per cage in animal quarters on a regular light/dark cycle (lights on 0600-1800) with ad libitum food and water for approximately 1 week before the experiment. The range of body weights on the 2 days of testing was 230-260 grams. The experiment was done on one day, with animals allowed to recover for three days before experiments are repeated.
Peptide Preparation. Test articles are prepared at the desired concentration in saline for either IP injection or gavage administration with N=6 for each dose and vehicle. Morphine (5 mg/kg) is used as a control for certain protocols. […] Apomorphine HCl (Sigma-Aldrich, St. Louis, Mo.) was dissolved in distilled water at a concentration of 5 mg/mL within 40 minutes of administration for injection at 1 mL/kg S.C. to give a dose of 5 mg/kg. When complete ED50s are determined, dosing range of the peptide will be 10, 3, 1, 0.3, 0.1 of the estimated ED50, covering two log orders of range.
The Hotplate Assay. The hotplate assay, a standard rat model for […] pain (see Le Bars et al., Pharmacol. Rev. 53: 597-652 (2001) and Chapman et al., Pain 22:1-31 (2002)), was performed as follows. A hotplate maintained at 52° C. to 53° C. was enclosed on four sides in a plexiglass chamber that extended 6 in. above the plate. Animals were placed on the plate, and the latency between the time a rat was placed on the surface and when it lifts or licks a back paw (indicative of pain sensation) was determined. Animals are removed immediately at the cutoff latency of 30 seconds. Assays are scored as the percent of maximal possible effect (% MPE) defined as 100%, which corresponds to the rats remaining on the hotplate for 30 seconds without responding. Thus, % MPE are calculated using the following equation: % MPE=[(post-drug latency−pre-drug latency)/(cut-off pre-drug latency)]×100%. N=6 or greater for all experiments.
Tmax indicates the time after dosing in which a maximum response was observed.

[8] = biological target: NTR-1 (Homo sapiens, UniProt P30989); assay: Functional agonism: induction of cAMP and inositol phosphate production; type: cell-based
Chain of NTR-1 (P30989 whole entry, species assumed): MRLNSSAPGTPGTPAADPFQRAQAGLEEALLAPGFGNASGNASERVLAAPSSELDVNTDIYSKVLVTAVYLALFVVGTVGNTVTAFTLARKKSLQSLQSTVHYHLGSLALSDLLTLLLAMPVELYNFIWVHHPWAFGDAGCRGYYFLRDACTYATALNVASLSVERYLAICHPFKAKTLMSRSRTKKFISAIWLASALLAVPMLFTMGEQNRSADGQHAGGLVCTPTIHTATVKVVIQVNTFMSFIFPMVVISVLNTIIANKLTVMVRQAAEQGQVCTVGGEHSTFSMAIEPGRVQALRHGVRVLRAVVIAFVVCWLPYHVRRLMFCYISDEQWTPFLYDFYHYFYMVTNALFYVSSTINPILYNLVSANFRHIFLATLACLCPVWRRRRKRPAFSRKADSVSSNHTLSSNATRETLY

[9] = biological target: NTR-2 (Homo sapiens, UniProt O95665); assay: as above; type: cell-based
Chain of NTR-2 (O95665 whole entry, species assumed): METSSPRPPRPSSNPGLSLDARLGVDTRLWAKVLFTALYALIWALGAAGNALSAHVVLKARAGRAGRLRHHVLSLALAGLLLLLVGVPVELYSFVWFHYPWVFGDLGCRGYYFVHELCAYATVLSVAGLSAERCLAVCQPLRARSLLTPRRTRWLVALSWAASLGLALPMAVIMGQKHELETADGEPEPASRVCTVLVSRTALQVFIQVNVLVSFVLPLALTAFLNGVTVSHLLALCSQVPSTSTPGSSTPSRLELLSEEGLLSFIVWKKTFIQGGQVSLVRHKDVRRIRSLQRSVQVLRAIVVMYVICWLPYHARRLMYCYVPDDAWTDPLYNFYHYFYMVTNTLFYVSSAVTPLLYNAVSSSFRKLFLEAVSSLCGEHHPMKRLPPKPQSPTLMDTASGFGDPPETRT

[10] = system: Brattleboro rats; details: orally dosed
[11] = 5 or 30 min incubation at 37° C.
[12] = system: rats; assay: d-Amphetamine induced hyperlocomotion / locomotor activity chambers; type: in vivo, rat
Source text: Sound- and light-attenuated locomotor cages are used to measure the ability of potential candidates to decrease d-amphetamine-induced hyperactivity.
d-Amphetamine induced hyperlocomotion. Experimentally I male Sprague-Dawley rats were housed as described above. Rats were handled for three days prior to testing to minimize experimenter induced hyperlocomotion on test day. For experiments, sound- and light-attenuated automated photocell beam activity chambers (AccuScan Instruments, Inc., Columbus, Ohio) were used to measure locomotion. Cages were connected to a VersaMax Analyzer (AccuScan) in conjunction with an IBM computer using VersaMax 1.80-0146 software (AccuScan) to record vertical and horizontal activity. Total activity values recorded were the sum of vertical and horizontal activity. […]
Rats were placed in the activity chambers for 30 minutes to habituate and establish baseline activity levels. Then, rats were removed and given an IP or oral dose of peptide (N=7) or saline (N=8) and returned to the chamber to establish the peptide's effect on spontaneous activity levels. About 30 minutes after administration, rats were removed and given an IP injection of d-amphetamine (1 mg/kg) or vehicle and returned to the chamber for a further 1 hr to assess the effect of the peptide on induced hyperlocomotion.
Chronic Testing Protocols.
Separate two-factor ANOVAs for DOSE X TIME were performed for each different time-phase of the assay. Phases for the IP dosing and oral dosing experiments consisted of habituation (time points 10-60), drug (time points 70-120), and amphetamine (time points 130-240).

[13] = Pharmacokinetics of ABS201 in blood/plasma (LC/MS/MS)
Source text: as §1, §2

SMILES: CC(C)C[C@H](NC(=O)[C@@H](NC(=O)[C@H](Cc1ccc(O)cc1)NC(=O)[C@@H]1CCCN1C(=O)[C@H](CCCNC(=N)N)NC(=O)[C@@H](C)CCCCCN)C(C)(C)C)C(=O)O [ABS201, hLys-Arg-Pro-Tyr-t-Leu-Leu] (X1-RPY[Tle]L-OH)
- Toxicity, dose without toxicity (single acute dose I.P.): (>100 x ED50)
- Toxicity (single acute dose at 100x ED50 I.P.): No
- levels in brain ([1]; IV 1 mg/kg and PO 30 mg/kg): below the LLOD at all times
- levels in brain ([1]; IV 5 mg/kg): below the LLOD at all times
- levels in brain ([1]; oral 50 mg/kg, 15 minutes post administration): detected in brains of 2 of 3 animals
- dose tolerance ([2]; 10x ED50 administered daily over 5 days): No
- dose tolerance ([2]; I.P. 5 days at 5× the ED50, hypothermia and amphetamine-induced locomotion): not observed
- antinociception ([2]; summary of behavioral effects): not antinociceptive
- mouse lymphoma study result [3]: inactive
- uptake in the stomach [4]: Virtually no ABS201 is taken up in the stomach
- hERG study result [5]: inactive
- half-life [6]: > 167 h
- analgesic activity (% MPE) compared with morphine ([7]; ABS201 5 mg/kg, Morphine 5 mg/kg): comparable in extent and duration to morphine
- tolerance to the analgesic activity ([7]; dosed daily for five days): do not become tolerant
- MPE (I.P.) ([7]; hotplate, IP at 10 mg/kg): 100%
- Tmax (I.P.) of % MPE ([7]; hotplate, IP at 10 mg/kg): 15-45
- MPE (oral) ([7]; hotplate, orally at 20 mg/kg): 39%
- Tmax (Oral) of % MPE ([7]; hotplate, orally at 20 mg/kg): 30
- Functional NTR-1 Agonist [8]: Yes
- Functional NTR-2 Agonist [9]: Yes
- reversal of PPI deficit [10]: reverses PPI
- binding to plasma proteins [11]: little or no binding
- ED50 inhibition of amphetamine-induced hyperlocomotion ([12]; IP): about 1 mg/kg
- effect of repeated daily dosing on attenuation of d-amphetamine induced hyperlocomotion ([12]; IP 5 mg/kg daily, 5 days): had no effect
- spontaneous locomotor activity, drug phase ([12]; IP, all dose groups): responded significantly lower than saline during the drug phase
- effect on d-amphetamine induced hyperactivity ([12]; IP, all doses): significantly reduced hyperlocomotion for all doses tested
- spontaneous locomotor activity, drug phase ([12]; oral 10, 20, 30 mg/kg): only the 10 and 30 mg/kg doses reduced spontaneous locomotor activity
- effect on d-amphetamine induced hyperlocomotion ([12]; oral 10-30 mg/kg, time points 140-180): reduced locomotor activity
- time by which plasma levels decreased below the LLOD ([13]; IV 1 mg/kg): ≤ 45 min
- clearance as % of rat hepatic blood flow ([13]; IV 5 mg/kg): 74.02%
- time measurable in whole blood ([13]; IV 5 mg/kg): up to 120 minutes
- time detectable in the blood and brain ([13]; IV 5 mg/kg and oral 50 mg/kg): up to 120 minutes
- plasma levels ([13]; oral 30 mg/kg): below the LLOD at all times
- levels in whole blood ([13]; oral 50 mg/kg): below the LLOD at all times
- Vd ([13]; rat, in vivo, iv, 5 mg/kg): 0.87 ± 0.27 L/kg
- clearance ([13]; rat, in vivo, iv, 5 mg/kg): 2.45 L/h/kg
